Experimental data: patent US7825256B2, “Inducible nitric oxide synthase dimerization inhibitors” (Kalypsys, Inc., priority 2004, dated 2010)

Test system: rat
Test: Carrageenan test (inflamed pain)
Assay type: in vivo
Conditions: inhibition class
Source text: Injection of carrageenan subcutaneously into the hind foot (paw) of a rat induces robust inflammation and pain. The inflammatory response begins 1-2 hrs post-carrageenan injection and persists for at least five hours following inoculation. In addition, the rat's inflamed hind paw is sensitive to noxious (hyperalgesia) or innocuous (allodynia) stimuli, compared to the contralateral hind paw. Compounds can be evaluated in this model for anti-hyperalgesia and anti-inflammatory activity. […] It is possible that some compounds will affect the inflamed paw and not affect the responses of the contralateral paw.
Embodiments of the carrageenan foot edema test are performed with materials, reagents and procedures essentially as described by Winter, et al., (Proc. Soc. Exp. Biol. Med., 111, 544 (1962)). […] The rats are evaluated for their responsiveness to noxious (paw pinch, plantar test) or innocuous (cold plate, von Frey filaments) stimuli.
In a prophylactic embodiment, following determination of “Pre-carrageenan” responses, a subplantar injection of the test compound or a placebo are administered. […] Three hours (and optionally five hours) after carrageenan injection, the rats are evaluated for their responsiveness to noxious or innocuous stimuli and the paw volume was again measured. […]

## CN(CCCNCc1ccc2c(c1)OCO2)c1nc(-n2ccnc2)ns1 [Example 2, N′-Benzo[1,3]dioxol-5-ylmethyl-N-(3-imidazol-1-yl-[1,2,4]thiadiazol-5-yl)-N-methyl-propane-1,3-diamine]
  Carrageenan Inflamed Pain at 30 mg/kg: − ((−) = <40% inhibition)
